These results are taken from paper PMC8153121, “N-Alkylation of Anthracycline Antibiotics by Natural Sesquiterpene Lactones as a Way to Obtain Antitumor Agents with Reduced Side Effects” (Biomedicines, 2021).

Like-named read-outs stand apart in the source and are kept apart here.

Series [1] deals with HEK293 (embryonic kidney). Kind of series: MTT cell viability test, non-transformed HEK293. The note with it: Homo sapiens, HEK293, 72 h, read-out: IC50, HEK293. It is filed as cell-based, Human. The procedure:
(§1) Human cell cultures of tumor origin (A549 (lung carcinoma), HCT116 (colon adenocarcinoma), MCF7 (breast cancer), RD (embryonic rhabdomyosarcoma)), and the line of non-transformed cells HEK293 (embryonic kidney) provided by the Laboratory of Tumor Cell Genetics at the N.N. Blokhin Russian Cancer Research Institute, as well as by the Institute of Cytology of the Russian Academy of Sciences, were grown in DMEM (Gibco, Scotland, UK) and MEM (Gibco, Scotland, UK) containing fetal calf serum (10% by volume) (ThermoFisher Scientific, Paisley, UK), L-glutamine (2 mM) (Gibco, Scotland, UK), and penicillin-streptomycin (1% by volume) (PanEco, Moscow, Russia).
(§2) Cellular viability was determined by the MTT test. […] After 24 h of incubation, various concentrations of the test compounds dissolved in DMSO (≤1%) were added to the cell cultures, the solvent was added to the control wells in an equal volume, and then the cells were cultured under the same conditions for 72 h. After the incubation time, MTT (3-(4,5-dimethylthiazol-2-yl)-2,5-diphenyltetrazolium bromide, 5 mg/mL) was added to each well, and the plates were further incubated for 2 h (until a characteristic color appeared). Then, the formazan granules were dissolved in DMSO.
(§3) Using a plate analyzer (Cytation3, BioTech Instruments Inc., USA), the optical density was determined at λ = 530 nm.
Background: Tetrazolium dyes change colour on reduction, which living cells bring about.

In another series the test system is MCF7 (breast cancer). Briefly: MTT cell viability test, MCF7. The series is classed as cell-based, Human. The note with it: Homo sapiens, MCF7, 72 h, read-out: IC50, MCF7. As to the method: as §1, §2, §3
The subject of another series is A549 (lung carcinoma). Briefly: MTT cell viability test, A549. The series is classed as cell-based, Human. Particulars: Homo sapiens, A549, 72 h, read-out: IC50, A549. As to the method: as §1, §2, §3
Series [2] addresses T1, complex II of the electron transport chain (Rattus norvegicus, UniProt P21913+Q641Z9+Q6PCT8+Q920L2).
T1 construct: Rat heart mitochondria were isolated by differential centrifugation; from tissue; host or cells: rat heart mitochondria
Briefly: Respiratory chain complex II, OCR of isolated rat heart mitochondria (Seahorse). It is filed as biochemical. Particulars: isolated rat heart mitochondria 10 μg/well, compounds at 30 μM. The procedure: (§4) Rat heart mitochondria were isolated by differential centrifugation using ice-cold buffer containing KCl (120 mM) and HEPES (20 mM), pH = 7.4, and a trypsin inhibitor. The mitochondrial yield ranged from 5 to 10 mg/mL of protein in the heart sediment. Mitochondria were stored in plastic containers at 4 °C.
(§5) The effect of the compounds on the functioning of the electron transport chain complexes was carried out using an Agilent Seahorse XF96e Analyzer (Seahorse Bioscience, Billerica, MA, USA) according to their ability to change the rate of oxygen uptake by isolated rat heart mitochondria (10 μg/well). The following modulators were used: activators of complex I of the electron transport chain, NADH dehydrogenase,—glutamate/malate; rotenone (2 μM) (Sigma Aldrich, Saint Louis, USA)—a tissue respiration blocker that stops the transfer of electrons from the reduced form of NADH to cytochrome b, was used as complex I inhibitor; potassium succinate ([…]) (Dia-M, Moscow, Russia), which is a substrate of complex II of the electron transport chain, made it possible to assess mitochondrial respiration mediated by succinate dehydrogenase; complex III (ubiquinol-cytochrome c-oxidoreductase) inhibitor—a blocker of cellular respiration antimycin A (Sigma Aldrich, Saint Louis, USA), as well as ascorbate/TMPD (0.5 μM) (Sigma Aldrich, Saint Louis, USA), allowed us to evaluate the cytochrome-c-oxidase mediated respiration of organelles.

The test system of series [3] is RD (embryonic rhabdomyosarcoma). Briefly: MTT cell viability test, RD. It is filed as cell-based, Human. Particulars: Homo sapiens, 72 h, read-out: IC50, RD. The procedure: as §1, §2, §3
In series [4] the test system is HCT116 (colon adenocarcinoma). Kind of series: MTT cell viability test, HCT116. The series is classed as cell-based, Human. Particulars: Homo sapiens, HCT-116, 72 h, read-out: IC50, HCT116. The procedure:
as §1, §2, §3

The test system of the next series is rat heart mitochondria. Briefly: Mitochondrial swelling. The series is classed as biochemical. The note with it: rat heart mitochondria 0.5 mg/mL, compounds at 100 μM, Ca2+ 25 μM. The procedure:
as §4
Mitochondrial swelling was recorded by the light transmission of the rat heart mitochondrial suspension at λ = 540 nm using a Victor 3 plate analyzer (Perkin Elmer, Germany). The swelling rate was estimated as △A540/min and was calculated as the tangent of the angle of the steepest dependence curve part △A540 versus time.

In series [5] the target is T2, cytochrome-c-oxidase complex of the mitochondrial respiratory chain (IV) (Rattus norvegicus, UniProt P00406+P05503+P05505).
T2 construct: Rat heart mitochondria were isolated by differential centrifugation; from tissue; host or cells: rat heart mitochondria
T2 sequence (P00406 whole entry, other chains not shown): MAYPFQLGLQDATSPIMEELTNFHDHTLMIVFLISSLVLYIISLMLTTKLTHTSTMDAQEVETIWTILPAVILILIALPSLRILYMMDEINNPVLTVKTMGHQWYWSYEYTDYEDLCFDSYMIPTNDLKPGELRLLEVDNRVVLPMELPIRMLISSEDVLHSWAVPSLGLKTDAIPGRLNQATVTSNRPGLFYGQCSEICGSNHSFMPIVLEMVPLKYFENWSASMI
T2 sequence (P05505 whole entry, other chains not shown): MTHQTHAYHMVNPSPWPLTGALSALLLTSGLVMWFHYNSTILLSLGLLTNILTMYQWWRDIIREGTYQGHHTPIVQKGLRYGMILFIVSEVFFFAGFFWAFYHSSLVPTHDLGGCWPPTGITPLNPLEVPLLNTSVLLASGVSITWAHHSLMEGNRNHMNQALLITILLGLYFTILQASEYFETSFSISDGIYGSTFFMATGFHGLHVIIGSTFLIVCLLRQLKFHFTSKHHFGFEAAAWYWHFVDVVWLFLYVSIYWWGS
Briefly: Respiratory chain complex IV, OCR of isolated rat heart mitochondria (Seahorse). The series is classed as biochemical. The note with it: isolated rat heart mitochondria 10 μg/well, compounds at 30 μM. The procedure:
as §4, §5

Series [6] relates to lipid peroxidation (LPO) of rat brain homogenate. Briefly: Lipid peroxidation of rat brain homogenate (TBA test). The series is classed as biochemical. Particulars: rat brain homogenate 2 mg/mL, Fe2+ 500 μM, compound 100 μM. As to the method: To obtain a brain homogenate, decapitation of rats anesthetized in advance with CO2 was performed using a guillotine. The brain was homogenized in a buffer containing KCl (120 mM) and HEPES (20 mM) (Gibco, Scotland, UK), pH = 7.4, at 4 °C and centrifuged at 1500 rpm to obtain a supernatant.
To study the effect of compounds on the process of lipid peroxidation (LPO) of rat brain homogenate, we used a modified version of the TBA test, which is based on the reaction of 2-thiobarbituric acid with the final LPO product—malonic dialdehyde (MDA). According to the experimental scheme, the well of the plate contained the studied compounds (100 μM), rat brain homogenate (2 mg/mL), as well as 500 μM ferrous iron ions (FeSO4 × […]). After 30 min of incubation at 37 °C, TBA reagent was added to all samples, incubated for 90 min at 90 °C, and centrifuged at 6000 rpm for 15 min. The optical density of the selected supernatant was measured on a Victor 3 plate analyzer (Perkin Elmer, Germany […]) at λ = 540 nm.

T1 sequence (Q920L2 35-656): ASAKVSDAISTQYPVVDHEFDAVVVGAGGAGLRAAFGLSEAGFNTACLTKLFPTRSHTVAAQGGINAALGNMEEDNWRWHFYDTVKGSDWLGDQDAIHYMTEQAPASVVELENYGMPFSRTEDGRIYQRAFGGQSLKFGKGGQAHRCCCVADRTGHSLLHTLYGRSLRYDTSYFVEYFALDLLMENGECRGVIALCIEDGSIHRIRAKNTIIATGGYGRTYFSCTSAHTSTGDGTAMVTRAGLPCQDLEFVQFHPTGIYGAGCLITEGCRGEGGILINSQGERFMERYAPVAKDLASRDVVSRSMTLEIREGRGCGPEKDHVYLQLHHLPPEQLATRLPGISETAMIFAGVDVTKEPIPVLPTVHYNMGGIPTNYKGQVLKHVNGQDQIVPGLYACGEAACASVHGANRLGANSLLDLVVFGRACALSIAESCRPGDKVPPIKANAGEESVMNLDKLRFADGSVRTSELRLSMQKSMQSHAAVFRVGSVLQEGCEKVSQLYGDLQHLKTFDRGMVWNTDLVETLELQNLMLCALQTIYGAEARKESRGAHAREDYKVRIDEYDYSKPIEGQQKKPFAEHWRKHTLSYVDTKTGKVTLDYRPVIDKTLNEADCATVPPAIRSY
T1 sequence (P21913 31-282): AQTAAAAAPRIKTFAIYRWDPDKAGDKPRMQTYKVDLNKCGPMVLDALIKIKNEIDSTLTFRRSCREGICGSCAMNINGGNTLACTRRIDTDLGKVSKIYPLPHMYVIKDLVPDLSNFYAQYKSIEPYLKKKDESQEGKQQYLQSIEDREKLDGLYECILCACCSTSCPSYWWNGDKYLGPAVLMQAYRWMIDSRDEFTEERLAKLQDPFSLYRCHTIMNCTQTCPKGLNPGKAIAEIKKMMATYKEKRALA
T1 sequence (Q641Z9 30-169 limits assumed): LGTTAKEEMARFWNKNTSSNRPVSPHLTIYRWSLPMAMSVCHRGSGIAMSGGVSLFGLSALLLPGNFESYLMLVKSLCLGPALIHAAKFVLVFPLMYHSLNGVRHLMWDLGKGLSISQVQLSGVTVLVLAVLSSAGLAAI
T1 sequence (Q6PCT8 57-159): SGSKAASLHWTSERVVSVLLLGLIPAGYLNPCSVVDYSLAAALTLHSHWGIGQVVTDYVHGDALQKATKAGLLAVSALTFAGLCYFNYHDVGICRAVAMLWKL

In turn, `COc1cccc2c1C(=O)c1c(O)c3c(c(O)c1C2=O)C[C@@](O)(C(=O)CO)C[C@@H]3O[C@H]1C[C@H](NC[C@H]2C(=O)O[C@@H]3C[C@@]4(C)CCC=C(C)C4=C[C@@H]32)[C@H](O)[C@H](C)O1` [Compound 8a, (8S,10S)-10-(((2R,4S,5S,6S)-4-((((3S,3aR,8aR,9aR)-5,8a-Dimethyl-2-oxo-2,3,3a,7,8,8a,9,9a-octahydronaphtho[2,3-b]furan-3-yl)methyl)amino)-5-hydroxy-6-methyltetrahydro-2H-pyran-2-yl)oxy)-6,8,11-trihydroxy-8-(2-hydroxyacetyl)-1-methoxy-7,8,9,10-tetrahydrotetracene-5,12-dione] registered a melting point of 166 to 170 °C. The IC50 in series [1] was found to be 16.4 ± 1.07 µM. Moreover, the IC50 in the series on MCF7 (breast cancer) is 2.34 ± 0.01 µM. In addition, in the series on A549 (lung carcinoma), the IC50 stood at 1.87 ± 0.07 µM. For the same molecule, the “Work of Respiratory Chain Complexes, % Decrease in OCR of Control, II” value (from here on “Work … % Decrease in OCR of Control, II”) in [2] came out at 27.58 ± 4.30%. Also, the IC50 in series [3] came to 1.03 ± 0.02 µM. Besides, the IC50 in series [4] was 0.43 ± 0.02 µM. For the same molecule, the “Mitochondrial Swelling, % of Ca2+-Induced Swelling” value (from here on “Mitochondrial Swelling, %”) in the series on rat heart mitochondria amounted to 47.84 ± 4.99%. The “Work of Respiratory Chain Complexes, % Decrease in OCR of Control, IV” value (“Work … % Decrease in OCR of Control, IV” below) in series [5] came to 25.95 ± 4.43%.
Take `COc1cccc2c1C(=O)c1c(O)c3c(c(O)c1C2=O)C[C@@](O)(C(=O)CO)C[C@@H]3O[C@H]1C[C@H](N)[C@H](O)[C@H](C)O1` [a, doxorubicin, reference compound]: the IC50 stood at 6.78 ± 0.76 µM in [1] (MTT, 72 h, non-transformed cells); 0.46 ± 0.03 µM with MCF7 (breast cancer) (MTT, 72 h); 0.38 ± 0.02 µM with A549 (lung carcinoma) (MTT, 72 h); 0.29 ± 0.02 µM in series [3] (MTT); 0.14 ± 0.01 µM in series [4] (MTT, 72 h). In addition, the “Work … % Decrease in OCR of Control, II” value is given as 70.54 ± 0.64% in [2] and “more than 70%” in series [2] (listed as doxorubicin). Moreover, in [6], the “% of MDA relative to control” value is on record as 236.68 ± 13.06%. For the same molecule, the “Mitochondrial Swelling, %” value with rat heart mitochondria stood at 116.20 ± 10.98%. In addition, in [5], the “Work … % Decrease in OCR of Control, IV” value was 37.73 ± 0.34%.
In the case of `COc1cccc2c1C(=O)c1c(O)c3c(c(O)c1C2=O)C[C@@](O)(C(C)=O)C[C@@H]3O[C@H]1C[C@H](N)[C@H](O)[C@H](C)O1` [b, daunorubicin, reference compound], the IC50 in series [1] is 12.3 ± 1.17 µM; in the series with MCF7 (breast cancer) it was 0.84 ± 0.17 µM; in the series on A549 (lung carcinoma), 0.33 ± 0.01 µM; in [3] it was 0.63 ± 0.03 µM; in [4], 0.12 µM. Besides, the “Work … % Decrease in OCR of Control, II” value in [2] is listed as 72.12 ± 0.96%; in [2] (listed as daunorubicin) it was “more than 70%”. Further, the “% of MDA relative to control” value in series [6] worked out at 226.05 ± 6.60%. The “Mitochondrial Swelling, %” value in the series with rat heart mitochondria came to 40.98 ± 3.86%. For the same molecule, the “Work … % Decrease in OCR of Control, IV” value in series [5] is on record as “— (“—” indicates activity absence for compounds (≤10%) in a particular test)”.
For the molecule `COc1cccc2c1C(=O)c1c(O)c3c(c(O)c1C2=O)C[C@@](O)(C(C)=O)C[C@@H]3O[C@H]1C[C@H](NC[C@H]2C(=O)O[C@@H]3C[C@@]4(C)CCC=C(C)C4=C[C@@H]32)[C@H](O)[C@H](C)O1`, the melting point lay within 152 to 158 °C.
The molecule `COc1cccc2c1C(=O)c1c(O)c3c(c(O)c1C2=O)C[C@@](O)(C(=O)CO)C[C@@H]3O[C@H]1C[C@H](NC[C@H]2C(=O)O[C@@H]3CC4=CCC[C@H](C)[C@@]4(C)[C@@H](O)[C@@H]32)[C@H](O)[C@H](C)O1` [Compound 7a, (8S,10S)-6,8,11-Trihydroxy-10-(((2R,4S,5S,6S)-5-hydroxy-4-((((3S,3aS,4S,4aR,5S,9aR)-4-hydroxy-4a,5-dimethyl-2-oxo-2,3,3a,4,4a,5,6,7,9,9a-decahydronaphtho[2,3-b]furan-3-yl)methyl)amino)-6-methyltetrahydro-2H-pyran-2-yl)oxy)-8-(2-hydroxyacetyl)-1-methoxy-7,8,9,10-tetrahydrotetracene-5,12-dione] gave a melting point of 170 to 175 °C. The IC50 in series [1] is 10.5 ± 0.88 µM. Also, in the series with MCF7 (breast cancer), the IC50 is 6.03 ± 0.11 µM. For the same molecule, the IC50 with A549 (lung carcinoma) turned out to be 5.43 ± 0.16 µM. The “Work … % Decrease in OCR of Control, II” value in [2] is 33.21 ± 3.84%. Also, in series [3], the IC50 was found to be 4.22 ± 0.1 µM. The IC50 in series [4] amounted to 0.92 µM. The “Mitochondrial Swelling, %” value in the series with rat heart mitochondria was “— (“—” indicates activity absence for compounds (≤10%) in a particular test)”. In series [5], the “Work … % Decrease in OCR of Control, IV” value is on record as 38.16 ± 0.84%.
Regarding `COc1cccc2c1C(=O)c1c(O)c3c(c(O)c1C2=O)C[C@@](O)(C(C)=O)C[C@@H]3O[C@H]1C[C@H](NC[C@H]2C(=O)O[C@@H]3CC4=CCC[C@H](C)[C@@]4(C)[C@@H](O)[C@@H]32)[C@H](O)[C@H](C)O1` [Compound 7b, (8S,10S)-8-Acetyl-6,8,11-trihydroxy-10-(((2R,4S,5S,6S)-5-hydroxy-4-((((3S,3aS,4S,4aR,5S,9aR)-4-hydroxy-4a,5-dimethyl-2-oxo-2,3,3a,4,4a,5,6,7,9,9a-decahydronaphtho[2,3-b]furan-3-yl)methyl)amino)-6-methyltetrahydro-2H-pyran-2-yl)oxy)-1-methoxy-7,8,9,10-tetrahydrotetracene-5,12-dione], the melting point is 155 to 162 °C. In addition, the IC50 in series [1] came to 6.42 ± 0.21 µM. Also, in the series on MCF7 (breast cancer), the IC50 turned out to be 1.9 ± 0.07 µM. The IC50 in the series with A549 (lung carcinoma) was 2.01 ± 0.09 µM. Moreover, in series [2], the “Work … % Decrease in OCR of Control, II” value came out at 21.04 ± 4.22%. Also, the IC50 in series [3] was 1.95 ± 0.01 µM. The IC50 in [4] was 0.2 ± 0.01 µM. The “Mitochondrial Swelling, %” value in the series with rat heart mitochondria is on record as “— (“—” indicates activity absence for compounds (≤10%) in a particular test)”. Besides, the “Work … % Decrease in OCR of Control, IV” value in [5] came out at 46.08 ± 3.42%.

The term IC50 denotes the concentration that gives 50% inhibition. The melting point is the temperature, or range, at which the solid turns liquid.
